We go through 16 molecules from patent publication US12570610B2, “Macromolecule-supported aminobenzazepine compounds” (Bolt Biotherapeutics, Inc., priority 2019, dated 2026).

The target of one assay is T1, human TLR7 (Homo sapiens, UniProt Q9NYK1).
T1 construct: host or cells: HEK293 reporter cells
T1 sequence (Q9NYK1 27-1049): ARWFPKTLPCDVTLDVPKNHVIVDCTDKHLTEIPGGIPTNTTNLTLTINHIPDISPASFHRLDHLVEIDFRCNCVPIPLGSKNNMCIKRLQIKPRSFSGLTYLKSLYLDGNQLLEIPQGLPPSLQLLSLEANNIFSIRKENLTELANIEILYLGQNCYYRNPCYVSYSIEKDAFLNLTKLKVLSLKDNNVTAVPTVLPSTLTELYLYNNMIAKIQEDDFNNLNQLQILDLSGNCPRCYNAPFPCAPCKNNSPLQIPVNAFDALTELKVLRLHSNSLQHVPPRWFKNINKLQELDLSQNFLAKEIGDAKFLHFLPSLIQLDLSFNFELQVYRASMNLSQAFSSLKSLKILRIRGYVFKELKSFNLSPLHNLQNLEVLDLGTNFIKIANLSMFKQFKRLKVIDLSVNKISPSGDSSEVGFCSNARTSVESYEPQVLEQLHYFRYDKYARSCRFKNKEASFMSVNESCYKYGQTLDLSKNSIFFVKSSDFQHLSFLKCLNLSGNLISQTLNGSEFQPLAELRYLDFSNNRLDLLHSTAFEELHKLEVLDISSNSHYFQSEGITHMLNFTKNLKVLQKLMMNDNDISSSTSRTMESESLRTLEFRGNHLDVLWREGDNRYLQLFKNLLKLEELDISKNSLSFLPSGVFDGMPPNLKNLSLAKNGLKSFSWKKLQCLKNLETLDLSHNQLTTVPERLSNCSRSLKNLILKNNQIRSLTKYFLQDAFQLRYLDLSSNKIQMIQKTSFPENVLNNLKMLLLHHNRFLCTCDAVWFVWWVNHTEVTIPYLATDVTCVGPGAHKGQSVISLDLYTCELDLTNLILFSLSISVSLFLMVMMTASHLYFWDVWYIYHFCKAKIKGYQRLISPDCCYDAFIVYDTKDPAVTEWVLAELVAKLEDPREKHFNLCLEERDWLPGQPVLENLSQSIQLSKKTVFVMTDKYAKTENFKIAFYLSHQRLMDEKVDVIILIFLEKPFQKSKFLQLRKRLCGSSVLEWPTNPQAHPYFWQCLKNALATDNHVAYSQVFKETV
The experiment in a line: HEK293 NFKB reporter cells expressing human TLR7 (HEK Reporter Assay). Type of assay: cell-based. The conditions noted are these: read-out: HEK293 hTLR7 EC50. As for the experimental part: (§1) Each compound was synthesized and purified by the methods in the Examples provided herein, characterized by mass spectrometry, and shown to have the mass indicated. Activity against HEK293 NFKB reporter cells expressing human TLR7 or human TLR8 was measured according to method described in Example 67.
(§2) Example 67: HEK Reporter Assay
(§3) HEK293 reporter cells expressing human TLR7 or human TLR8 were purchased from Invivogen and vendor protocols were followed for cellular propagation and experimentation. Briefly, cells were grown to 80-85% confluence at 5% CO2 in DMEM supplemented with 10% FBS, Zeocin, and Blasticidin. Cells were then seeded in 96-well flat plates at 4×10^4 cells/well with substrate containing HEK detection medium and immunostimulatory molecules. Activity was measured using a plate reader at 620-655 nm wavelength.
A general note: Reporter assays use an easily measured gene product as a stand-in for the process of interest.
Broadly, the EC50 is the concentration needed to bring the measured effect to its halfway point. As for `CCCN(CCC)C(=O)C1=Cc2ccc(-c3cccc(S(=O)(=O)Nc4nccs4)c3)cc2N=C(N)C1` [Bz-35], the 50% effective concentration (EC50) was above 9 µM.
On the same count and under the same terms, next, `CCCN(CCC)C(=O)C1=Cc2ccc(-c3cccc(S(=O)(=O)NC(=O)c4ccccc4)c3)cc2N=C(N)C1` [Bz-37]: above 9 µM; `CCCN(CCC(F)(F)F)C(=O)C1=Cc2ccc(C(=O)Nc3ccccc3)cc2N=C(N)C1` [Bz-75]: above 9 µM.
Same read-out and setting: the same measure for `CCCN(CCOC)C(=O)C1=Cc2ccc(-c3cccc(S(=O)(=O)N4CC(CO)C4)c3)cc2N=C(N)C1` [Bz-60]: above 9 µM; for `CCCN(CCc1c[nH]cn1)C(=O)C1=Cc2ccc(-c3cccc(S(=O)(=O)N4CC(CO)C4)c3)cc2N=C(N)C1` [Bz-41]: above 9 µM; for `CCCN(CCC)C(=O)C1=Cc2ccc(C(=O)COC)cc2N=C(N)C1` [Bz-65]: 3.93 µM.
Take `CCCN(Cc1ccc(CN)cc1)C(=O)C1=Cc2ccccc2N=C(N)C1` [Bz-59]: the 50% effective concentration (EC50) was above 9 µM.
Still for that read-out and setting: next, `CCCNC(=O)C1=Cc2ccc(-c3cccc(S(=O)(=O)N4CC(CO)C4)c3)cc2N=C(N)C1` [Bz-58]: above 9 µM; `CCCN(CCC)C(=O)C1=Cc2ccc(CCCCCN)cc2N=C(N)C1` [Bz-74]: above 9 µM; `CCCN(NCC)C(=O)C1=Cc2ccc(-c3cccc(S(=O)(=O)N4CC(CO)C4)c3)cc2N=C(N)C1` [Bz-71]: above 9 µM.
On the same count and under the same terms, the same measure for `CCCN(CCc1ccc(OC)cc1)C(=O)C1=Cc2ccc(-c3cccc(S(=O)(=O)N4CC(CN)C4)c3)cc2N=C(N)C1` [Bz-61]: above 9 µM; for `CCCN(Cc1ccc(CN(C)C)cc1)C(=O)C1=Cc2ccc(-c3cccc(S(=O)(=O)N4CC(CN)C4)c3)cc2N=C(N)C1` [Bz-62]: above 9 µM.
Still for that read-out and setting: the same measure for `CCCN(CCC)C(=O)C1=Cc2ccc(-c3c(C)n[nH]c3C)cc2N=C(N)C1` [Bz-45]: above 9 µM; for `CCCN(CCC)C(=O)C1=Cc2ccc(-c3cc(C(F)(F)F)cc(S(=O)(=O)N4CC(CN(C)C)C4)c3)cc2N=C(N)C1` [Bz-40]: 0.332 µM.

A further assay addresses T2, human TLR8 (Homo sapiens, UniProt Q9NR97).
T2 construct: host or cells: HEK293 reporter cells
T2 sequence (Q9NR97 27-1041): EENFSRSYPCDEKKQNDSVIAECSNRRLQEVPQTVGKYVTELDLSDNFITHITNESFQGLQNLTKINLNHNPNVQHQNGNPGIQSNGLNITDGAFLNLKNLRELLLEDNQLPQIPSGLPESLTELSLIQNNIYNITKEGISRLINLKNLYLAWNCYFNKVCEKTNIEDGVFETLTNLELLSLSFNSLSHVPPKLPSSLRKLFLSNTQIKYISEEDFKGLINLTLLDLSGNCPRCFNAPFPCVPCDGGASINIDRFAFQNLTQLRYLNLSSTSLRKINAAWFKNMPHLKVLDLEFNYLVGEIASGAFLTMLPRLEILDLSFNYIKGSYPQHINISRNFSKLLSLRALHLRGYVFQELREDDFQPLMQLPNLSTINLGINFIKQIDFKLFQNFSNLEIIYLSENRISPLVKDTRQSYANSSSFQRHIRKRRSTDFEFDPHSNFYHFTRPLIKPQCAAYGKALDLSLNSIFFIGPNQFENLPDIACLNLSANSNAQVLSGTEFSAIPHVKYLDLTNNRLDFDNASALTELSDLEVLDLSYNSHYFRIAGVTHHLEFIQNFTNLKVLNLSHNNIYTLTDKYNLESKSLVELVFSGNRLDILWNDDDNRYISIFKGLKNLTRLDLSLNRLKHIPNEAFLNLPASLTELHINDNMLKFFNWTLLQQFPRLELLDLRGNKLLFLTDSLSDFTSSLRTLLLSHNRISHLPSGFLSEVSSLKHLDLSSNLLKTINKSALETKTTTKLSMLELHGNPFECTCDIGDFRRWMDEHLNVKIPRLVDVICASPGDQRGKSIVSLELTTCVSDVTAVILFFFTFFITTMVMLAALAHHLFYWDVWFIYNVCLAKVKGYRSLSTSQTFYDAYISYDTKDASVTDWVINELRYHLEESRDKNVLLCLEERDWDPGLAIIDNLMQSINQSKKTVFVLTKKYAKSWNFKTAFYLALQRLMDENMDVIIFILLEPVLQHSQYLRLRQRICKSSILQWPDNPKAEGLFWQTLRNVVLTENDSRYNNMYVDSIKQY
The experiment in a line: HEK293 NFKB reporter cells expressing human TLR8 (HEK Reporter Assay). The class given is cell-based. The following applies: read-out: HEK293 hTLR8 EC50. On the procedure:
as §1, §2, §3
With `CCCN(CCC)C(=O)C1=Cc2ccc(-c3cccc(S(=O)(=O)Nc4nccs4)c3)cc2N=C(N)C1` [Bz-35], the concentration for a half-maximal effect (EC50) was above 9 µM.
Still for that read-out and setting: the same measure for `CCCN(Cc1ccc(CN2CCN(C(=O)OC(C)(C)C)CC2)cc1)C(=O)C1=Cc2ccc(-c3cccc(S(=O)(=O)N4CC(CO)C4)c3)cc2N=C(N)C1` [Bz-44]: 1.02 µM.
On the same count and under the same terms, next, `CCCN(CCC)C(=O)C1=Cc2ccc(-c3cccc(S(=O)(=O)NC(=O)c4ccccc4)c3)cc2N=C(N)C1` [Bz-37]: above 9 µM; `CCCN(CCc1c[nH]cn1)C(=O)C1=Cc2ccc(-c3cccc(S(=O)(=O)N4CC(CO)C4)c3)cc2N=C(N)C1` [Bz-41]: above 9 µM.
Still for that read-out and setting: next, `CCCN(CCC)C(=O)C1=Cc2ccc(C(=O)COC)cc2N=C(N)C1` [Bz-65]: 5.9 µM.
`CCCNC(=O)C1=Cc2ccc(-c3cccc(S(=O)(=O)N4CC(CO)C4)c3)cc2N=C(N)C1` [Bz-58]: the concentration for a half-maximal effect (EC50) was above 9 µM.
Regarding `CCCN(CCc1ccc(OC)cc1)C(=O)C1=Cc2ccc(-c3cccc(S(=O)(=O)N4CC(CN)C4)c3)cc2N=C(N)C1` [Bz-61], the EC50 stood at 5.85 µM.
The same measure, in the same setting: next, `CCCN(Cc1ccc(CN(C)C)cc1)C(=O)C1=Cc2ccc(-c3cccc(S(=O)(=O)N4CC(CN)C4)c3)cc2N=C(N)C1` [Bz-62]: above 9 µM.
On the same count and under the same terms, the same measure for `CCCN(CCC)C(=O)C1=Cc2ccc(-c3cc(C(F)(F)F)cc(S(=O)(=O)N4CC(CN(C)C)C4)c3)cc2N=C(N)C1` [Bz-40]: above 9 µM; for `CCN(CC)C(=O)C1=Cc2ccc(-c3cccc(S(=O)(=O)N4CC(CO)C4)c3)cc2N=C(N)C1` [Bz-50]: above 9 µM.
